# Assay results published in patent US20050089488A1, “Deodorant composition with monocyclic, unsaturated sequiterpene alcohols and glyceryl monoalkyl ethers as synergistic active deodorant agents” (priority 2003, published 2005).
# What was measured:
# [1] = cited from earlier work
# [2] = tested on: odor-causing gram positive bacteria; conditions: cited from earlier work
# [3] = 0.3% by weight in ethanol base deodorant, versus triclosan; cited from earlier work
# [4] = tested on: Staphylococcus aureus (ATCC 6538); assay: Surviving microorganisms after direct inoculation of gel formula; assay type: cell-based
# Procedure: The antimicrobially synergistically effect of alpha bisabolol (Natural) for glyceryl monoalkyl ether was studied and the results are summarized in Tables 15 and 16, below. […] Subsequently the steareth-100, sodium stearate, and […] alcohol were added and the mixture cooled. […] The final compositions were then poured into containers and cooled to room temperature. […] Therefore following formula is gel type. Inoculate test microorganisms to provide a suspension containing from 105 to 106 microorganisms/ml and after 1 hr, 5 hr and 24 hr, check the surviving microorganisms by incubating in the soybean-casein digest agar for 24 hours at 32.5° C. the results are summarized below.
Structure (SMILES),stability ([1]; against hydrolysis and elevated temperatures),"solubility in fats and organic solvents ([1]; fats, alcohols, glycols and glycol ethers)",solubility in water ([1]; water) [%],anti-microbial activity against odor-causing gram positive bacteria [2],deodorant effectiveness [3],"anti-microbial activity alone ([4]; 0.2% by weight, with no ethylhexylglycerin)",effect on the anti-microbial activity of ethylhexylglycerin ([4]; combination with ethylhexylglycerin)
CCCCC(CC)COCC(O)CO (stereo not shown) [Ethylhexylglycerin],rather stable,completely soluble,0.2,very low,just as effective as 0.1% by weight triclosan,–,–
"CC(C)=CCC[C@](C)(O)[C@@H]1CC=C(C)CC1 [alpha bisabolol (Natural), alpha-bisabolol]",–,–,–,–,–,no anti-microbial activity,surprising and unexpected synergistic effect
